{"source": "patent US20240197761A1", "about": "“FUCOSYLATION AND IMMUNE MODULATION IN CANCER” (H. LEE MOFFITT CANCER CENTER AND RESEARCH INSTITUTE, INC., priority 2021, published 2024)", "tested_on": "SM1 tumors", "assay": "Anti-PD-1 mouse model, SM1: tumor growth and flow cytometric profiling of tumors and draining lymph nodes (Table 2)", "assay_type": "in vivo, C57BL/6 mice", "excerpt": "FIGS. 21A and 21B Administration of combination L-fucose and anti-PD-1 suppresses tumors and increases intra-tumoral CD4+T central and effector memory cells (a) Volumetric growth curves for SW1 tumors in C3H/HeN mice (left) and SM1 tumors in C57BL/6 mice (right) fed L-fucose (LF) and treated with PBS (control) or anti-PD-1. (concurrent initiation of LF anti-PD1 (▾)). The tumor growth curves are means±SEM from ≥7 mice per group. (b) Volumetric growth curves for SM1 tumors in C57BL/6 mice fed ±L-fucose (LF) and treated with PBS (control) or anti-PD-1 (PD-1). (concurrent initiation of LF±PD1 (▾)). The tumor growth curves are means±SEM from ≥7 mice per group. *=p<0.05. At Day 7 (prior to administration of LF or PD1), Day 21 (endpoint for tumors of control-treated mice), Day 31 (endpoint for tumors of LF-treated mice), Day 63 (endpoint for tumors of PD1-treated mice), the primary tumors (Tumor) and draining lymph nodes (LN) of 4-5 mice per treatment group were analyzed by flow cytometry for intratumor levels of CD4+ and CD8+T subpopulations (naive/terminal, stem central/central/effector memory) and dendritic cell (DC) subpopulations (cDC1, cDC2, and monocyte-derived DC (moDC)) as in FIG. 15. Proportions of CD4+, CD8+, and DC subpopulations in each organ at each timepoints are represented by the color-coded pie charts (each pie chart represents 4-5 mice). Absolute numbers of the subpopulations per […] of tumor/tissue homogenate at each timepoint are represented in the color-coded column charts.\nTumors of SW1 or SM1 melanoma cells from […] or C57BL/6 mice, respectively) were digested using 1× tumor digest buffer (0.5 mg/mL Collagenase I, 0.5 mg/mL Collagenase IV, 0.25 mg/mL Hyalyronidase V, 0.1 mg/mL DNAse I in HBSS (Millipore Sigma (St. Louis, MO)). Tumors were homogenized using the Miltenyi MACs dissociator. Red blood cells were lysed using ACK lysis buffer (Life Technologies, (Grand Island, NY)). Tumor homogenate cells were counted using a standard hemocytometer.\nTotal TILs were gated first to single cells (based on forward scatter height vs width, followed by side scatter height vs. width). Live cells were gated from the Zombie negative population from the population above. TILs were gated based on splenocyte size from a control spleen. Individual immune subpopulations were sub-gated from the total TIL population using the following staining criteria: CD3+ for CD3+ T cells; CD3+/CD4+/CD8− for CD4+T cells; CD3+/CD4−/CD8+ for CD8+ T cells, CD11c+/CD11b+ for DCs; either NK1.1 (for C57/BL6 mice) or DX5 (for C3H/HeJ) for NK cells; CD11b+/GR1+ for MDSC-like cells; and F4/80+ for macrophages. Single-cell suspensions from tumor and spleen tissue were stained with Live/Dead Zombie NIR (Biolegend, (San Diego, CA)) at 1:1,000 in PBS for 20 min. Cell suspensions were spun down and stained with the following with antibodies at 0.5 μg/ml per antibody: APC anti-mouse CD3, Pacific Blue anti-mouse CD4, BV785 anti-mouse CD8, PerCP anti-mouse CD25, FITC anti-mouse F4/80, PeCy7 anti-mouse CD11c, PE anti-mouse NK1.1 or PE anti-mouse DX5, and PerCP-Cy5.5 anti-mouse CD11 b. After staining, the cells were washed and fixed (2% formaldehyde), followed by another wash and flow cytometric analysis. The compensation controls were prepared using 0.5 μg/mL of each antibody with UltraComp eBeads, (ThermoFisher Scientific (Waltham, MA)). All samples were subject to flow cytometric profiling using a LSR Flow Cytometer (BD Biosciences (San Jose, CA)) and analysis as indicated using FlowJo software (BD Biosciences (San Jose, CA)).\nSW1 or SM1 mouse melanoma cells were injected into syngeneic C3H/HeN female or C57BL/6 male mice, respectively. After approximately 7 days, when the mice tumors reached −150 mm^3, the mice were either supplemented with or without 100 mM L-fucose (Biosynth (Oak Terrace, IL)) via drinking water, which was provided ad libitum. […]", "data": [{"molecule": "C[C@H](O)[C@@H](O)[C@@H](O)[C@H](O)C=O", "note": "[L-fucose]", "values": [{"measurement": "CD4 central memory, average # of cells", "setting": "Day 21, lymph nodes", "result": "592.12 per 10^6 cells of total tumor"}, {"measurement": "CD4 effector memory, average # of cells", "setting": "Day 21, lymph nodes", "result": "1155.12 per 10^6 cells of total tumor"}, {"measurement": "CD4 naïve, average # of cells", "setting": "Day 21, lymph nodes", "result": "24832.36 per 10^6 cells of total tumor"}, {"measurement": "CD4 stem central memory, average # of cells", "setting": "Day 21, lymph nodes", "result": "512.17 per 10^6 cells of total tumor"}, {"measurement": "CD8 central memory, average # of cells", "setting": "Day 21, lymph nodes", "result": "1017.54 per 10^6 cells of total tumor"}, {"measurement": "CD8 effector memory, average # of cells", "setting": "Day 21, lymph nodes", "result": "4093.80 per 10^6 cells of total tumor"}, {"measurement": "CD8 naïve, average # of cells", "setting": "Day 21, lymph nodes", "result": "11896.39 per 10^6 cells of total tumor"}, {"measurement": "CD8 stem central memory, average # of cells", "setting": "Day 21, lymph nodes", "result": "192.89 per 10^6 cells of total tumor"}, {"measurement": "cDC1, average # of cells", "setting": "Day 21, lymph nodes", "result": "9395.57 per 10^6 cells of total tumor"}, {"measurement": "cDC2, average # of cells", "setting": "Day 21, lymph nodes", "result": "13997.11 per 10^6 cells of total tumor"}, {"measurement": "moDC, average # of cells", "setting": "Day 21, lymph nodes", "result": "1788.45 per 10^6 cells of total tumor"}, {"measurement": "CD4+ CRTAM+, average # of cells", "setting": "Day 21, tumors", "result": "361.60 per 10^6 cells of total tumor"}, {"measurement": "CD4 central memory, average # of cells", "setting": "Day 21, tumors", "result": "19.50 per 10^6 cells of total tumor"}, {"measurement": "CD4 effector memory, average # of cells", "setting": "Day 21, tumors", "result": "302.98 per 10^6 cells of total tumor"}, {"measurement": "CD4 naïve, average # of cells", "setting": "Day 21, tumors", "result": "186.42 per 10^6 cells of total tumor"}, {"measurement": "CD4 stem central memory, average # of cells", "setting": "Day 21, tumors", "result": "3.22 per 10^6 cells of total tumor"}, {"measurement": "CD8+ GRZB+, average # of cells", "setting": "Day 21, tumors", "result": "14146.30 per 10^6 cells of total tumor"}, {"measurement": "CD8 central memory, average # of cells", "setting": "Day 21, tumors", "result": "25.37 per 10^6 cells of total tumor"}, {"measurement": "CD8 effector memory, average # of cells", "setting": "Day 21, tumors", "result": "889.74 per 10^6 cells of total tumor"}, {"measurement": "CD8 naïve, average # of cells", "setting": "Day 21, tumors", "result": "81.09 per 10^6 cells of total tumor"}, {"measurement": "CD8 stem central memory, average # of cells", "setting": "Day 21, tumors", "result": "1.53 per 10^6 cells of total tumor"}, {"measurement": "cDC1, average # of cells", "setting": "Day 21, tumors", "result": "2032.24 per 10^6 cells of total tumor"}, {"measurement": "cDC2, average # of cells", "setting": "Day 21, tumors", "result": "12762.45 per 10^6 cells of total tumor"}, {"measurement": "moDC, average # of cells", "setting": "Day 21, tumors", "result": "570.99 per 10^6 cells of total tumor"}, {"measurement": "CD4 central memory, average # of cells", "setting": "Day 31, lymph nodes", "result": "424.67 per 10^6 cells of total tumor"}, {"measurement": "CD4 effector memory, average # of cells", "setting": "Day 31, lymph nodes", "result": "6638.79 per 10^6 cells of total tumor"}, {"measurement": "CD4 naïve, average # of cells", "setting": "Day 31, lymph nodes", "result": "30715.03 per 10^6 cells of total tumor"}, {"measurement": "CD4 stem central memory, average # of cells", "setting": "Day 31, lymph nodes", "result": "408.72 per 10^6 cells of total tumor"}, {"measurement": "CD8 central memory, average # of cells", "setting": "Day 31, lymph nodes", "result": "286.54 per 10^6 cells of total tumor"}, {"measurement": "CD8 effector memory, average # of cells", "setting": "Day 31, lymph nodes", "result": "2478.29 per 10^6 cells of total tumor"}, {"measurement": "CD8 naïve, average # of cells", "setting": "Day 31, lymph nodes", "result": "12415.41 per 10^6 cells of total tumor"}, {"measurement": "CD8 stem central memory, average # of cells", "setting": "Day 31, lymph nodes", "result": "56.84 per 10^6 cells of total tumor"}, {"measurement": "cDC1, average # of cells", "setting": "Day 31, lymph nodes", "result": "5781.73 per 10^6 cells of total tumor"}, {"measurement": "cDC2, average # of cells", "setting": "Day 31, lymph nodes", "result": "22628.85 per 10^6 cells of total tumor"}, {"measurement": "moDC, average # of cells", "setting": "Day 31, lymph nodes", "result": "7315.56 per 10^6 cells of total tumor"}, {"measurement": "CD4+ CRTAM+, average # of cells", "setting": "Day 31, tumors", "result": "112.92 per 10^6 cells of total tumor"}, {"measurement": "CD4 central memory, average # of cells", "setting": "Day 31, tumors", "result": "28.68 per 10^6 cells of total tumor"}, {"measurement": "CD4 effector memory, average # of cells", "setting": "Day 31, tumors", "result": "297.82 per 10^6 cells of total tumor"}, {"measurement": "CD4 naïve, average # of cells", "setting": "Day 31, tumors", "result": "401.23 per 10^6 cells of total tumor"}, {"measurement": "CD4 stem central memory, average # of cells", "setting": "Day 31, tumors", "result": "6.29 per 10^6 cells of total tumor"}, {"measurement": "CD8+ GRZB+, average # of cells", "setting": "Day 31, tumors", "result": "5679.05 per 10^6 cells of total tumor"}, {"measurement": "CD8 central memory, average # of cells", "setting": "Day 31, tumors", "result": "26.40 per 10^6 cells of total tumor"}, {"measurement": "CD8 effector memory, average # of cells", "setting": "Day 31, tumors", "result": "202.98 per 10^6 cells of total tumor"}, {"measurement": "CD8 naïve, average # of cells", "setting": "Day 31, tumors", "result": "223.96 per 10^6 cells of total tumor"}, {"measurement": "CD8 stem central memory, average # of cells", "setting": "Day 31, tumors", "result": "3.15 per 10^6 cells of total tumor"}, {"measurement": "cDC1, average # of cells", "setting": "Day 31, tumors", "result": "200.82 per 10^6 cells of total tumor"}, {"measurement": "cDC2, average # of cells", "setting": "Day 31, tumors", "result": "5753.01 per 10^6 cells of total tumor"}, {"measurement": "moDC, average # of cells", "setting": "Day 31, tumors", "result": "1107.62 per 10^6 cells of total tumor"}, {"measurement": "intratumoral CD4+T central and effector memory cells", "setting": "L-fuc alone (FIG. 21b)", "result": "increased"}, {"measurement": "tumor suppression in combination with anti-PD1", "setting": "SM1 model", "result": "augmented durable suppression"}, {"measurement": "tumor suppression, single agent", "setting": "SM1 model (FIG. 21a right)", "result": "less tumor suppressive than anti-PD1 alone"}]}]}
